Laboratory results reported in patent US10800772B2 (Gilead Sciences, Inc., priority 2016, dated 2020).
Where two headings read alike, the source gives them in different places.

Experiments:
HIV-IIIb (wildtype) = experiment: Antiviral assay in MT4 cells, HIV-IIIb wildtype; type: cell-based, HIV-1; conditions: read-out: WT EC50
Summary of the method: (§1)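 Each EC50 is the compound concentration that reduced CellTiter-Glo luminescence by 50% after 5 days of culture of HIV-IIIb-infected MT4 cells. Infection was at 0.004 m.o.i. with 3 h pre-incubation. Testing used 10 concentrations in quadruplicate.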

HIV-IIIb IN T174I BT = experiment: Antiviral assay in MT4 cells, HIV-IIIb IN T174I BT virus (from viral breakthrough); type: cell-based, HIV-1; conditions: Human immunodeficiency virus 1, IIIB, MT4, 120 h, read-out: T174I BT EC50, MT4 cells, HIV-IIIb IN T174I BT (viral breakthrough), 5 days, CellTiter-Glo
Summary of the method: as §1

HIV-IIIb IN T174I DE = experiment: Antiviral assay in MT4 cells, HIV-IIIb IN T174I DE virus (from dose escalation passaging); type: cell-based, HIV-1; conditions: Human immunodeficiency virus 1, IIIB, MT4, 120 h, read-out: T174I DE EC50, MT4 cells, HIV-IIIb IN T174I DE (dose escalation), 5 days, CellTiter-Glo
Summary of the method: as §1

in vitro = conditions: human, microsomes
[1] = Hum MS stability (human microsomal stability half-life); conditions: human microsomes
[2] = Human immunodeficiency virus 1, IIIB, MT4, 120 h

| SMILES | EC50 (HIV-IIIb (wildtype); Human immunodeficiency virus 1, 120 h, MT4 cells, HIV-IIIb wildtype, 5 days, CellTiter-Glo) [nM] | EC50 (HIV-IIIb IN T174I BT) [nM] | EC50 (HIV-IIIb IN T174I DE) [nM] | half-life (in vitro) [h] | EC50 (HIV-IIIb (wildtype); [2]) [nM] | half-life [1] [h] |
| --- | --- | --- | --- | --- | --- | --- |
| Cc1cc2nc(-c3ccc4c(c3)c(C3CCN(C5CC5)CC3)nn4C)sc2c(-c2ccc(Cl)cc2)c1[C@H](OC(C)(C)C)C(=O)O [Compound 128, (S)-2-(tert-butoxy)-2-(7-(4-chloro-phenyl)-2-(3-(1-cyclopropylpiperidin-4-yl)-1-methyl-1H-indazol-5-yl)-5-methylbenzo[d]thiazol-6-yl) acetic acid] | 4 | 292 | 511 | 4.03 | – | – |
| COCCN(C)C1CN(c2nn(C)c3ccc(-c4nc5cc(C)c([C@H](OC(C)(C)C)C(=O)O)c(-c6ccc(Cl)cc6)c5s4)cc23)C1 [Compound 145, (S)-2-(tert-butoxy)-2-(7-(4-chloro-phenyl)-2-(3-(3-((2-methoxyethyl) (methyl)amino)azetidin-1-yl)-1-methyl-1H-indazol-5-yl)-5-methylbenzo[d]thiazol-6-yl) acetic acid] | – | 1590 | 2170 | – | 12 | 2.15 |
| Cc1cc2nc(-c3ccc4c(c3)c(C3CCN(C5CC(O)C5)CC3)nn4C)sc2c(-c2ccc(Cl)cc2)c1[C@H](OC(C)(C)C)C(=O)O (stereo partly drawn) [Compound 156, (S)-2-(tert-butoxy)-2-(7-(4-chloro-phenyl)-2-(3-(1-((1s,3s)-3-hydroxy-cyclobutyl)piperidin-4-yl)-1-methyl-1H-indazol-5-yl)-5-methylbenzo[d]thiazol-6-yl) acetic acid] | – | 126 | 197 | – | 11 | 4.95 |
| Cc1cc2nc(-c3ccc4c(c3)c(C3CCN([C@H]5CCN(C)C5)CC3)nn4C)sc2c(-c2ccc(Cl)cc2)c1[C@H](OC(C)(C)C)C(=O)O [Compound 163, (S)-2-(tert-butoxy)-2-(7-(4-chloro-phenyl)-5-methyl-2-(1-methyl-3-(1-((S)-1-methyl-pyrrolidin-3-yl)piperidin-4-yl)-1H-indazol-5-yl)benzo[d]thiazol-6-yl)acetic acid] | – | 204 | 324 | – | 20 | 2.12 |
| CC(=O)N1CC[C@H](N2CCC(c3nn(C)c4ccc(-c5nc6cc(C)c([C@H](OC(C)(C)C)C(=O)O)c(-c7ccc(Cl)cc7)c6s5)nc34)CC2)C1 [Compound 170, (S)-2-(2-(3-(1-((S)-1-acetyl-pyrrolidin-3-yl)piperidin-4-yl)-1-methyl-1H-pyrazolo[4,3-b]pyridin-5-yl)-7-(4-chlorophenyl)-5-methylbenzo [d]thiazol-6-yl)-2-(tert-butoxy) acetic acid] | – | 57 | 112 | – | 2 | 0.533 |
| Cc1cc2nc(-c3ccc4c(n3)c(C3CCN([C@H]5CCN(C)C5)CC3)nn4C)sc2c(-c2ccc(Cl)cc2)c1[C@H](OC(C)(C)C)C(=O)O [Compound 172, (S)-2-(tert-butoxy)-2-(7-(4-chloro-phenyl)-5-methyl-2-(1-methyl-3-(1-((S)-1-methyl-pyrrolidin-3-yl)piperidin-4-yl)-1H-pyrazolo[4,3-b]pyridin-5-yl)benzo[d]thiazol-6-yl)acetic acid] | – | 54 | 118 | – | 5 | 0.933 |
| Cc1cc2nc(-c3ccc4c(n3)c(C3CCN(CCN(C)C)CC3)nn4C)sc2c(-c2ccc(Cl)cc2)c1[C@H](OC(C)(C)C)C(=O)O [Compound 173, (S)-2-(tert-butoxy)-2-(7-(4-chloro-phenyl)-2-(3-(1-(2-(dimethylamino)ethyl)piperidin-4-yl)-1-methyl-1H-pyrazolo[4,3-b]pyridin-5-yl)-5-methylbenzo[d]thiazol-6-yl) acetic acid] | – | 45 | 89 | – | 2 | 1.2 |
| Cc1cc2nc(-c3ccc4c(n3)c(C3CCN(C5COC5)CC3)nn4C)sc2c(-c2ccc(Cl)cc2)c1[C@H](OC(C)(C)C)C(=O)O [Compound 175, (S)-2-(tert-butoxy)-2-(7-(4-chloro-phenyl)-5-methyl-2-(1-methyl-3-(1-(oxetan-3-yl)piperidin-4-yl)-1H-pyrazolo [4,3-b]pyridin-5-yl)benzo[d]thiazol-6-yl) acetic acid] | – | 122 | 252 | – | 3 | 5.95 |
| Cc1cc2nc(-c3ccc4c(n3)c(C3CCN(C5CN(C)C5)CC3)nn4C)sc2c(-c2ccc(Cl)cc2)c1[C@H](OC(C)(C)C)C(=O)O [Compound 184, (S)-2-(tert-butoxy)-2-(7-(4-chloro-phenyl)-5-methyl-2-(1-methyl-3-(1-(1-methylazetidin-3-yl)piperidin-4-yl)-1H-pyrazolo [4,3-b]pyridin-5-yl)benzo[d]thiazol-6-yl) acetic acid] | – | 103 | 218 | – | 4 | 0.767 |
| CC(=O)N1CC(N2CCC(c3nn(C)c4ccc(-c5nc6cc(C)c([C@H](OC(C)(C)C)C(=O)O)c(-c7ccc(Cl)cc7)c6s5)nc34)CC2)C1 [Compound 185, (S)-2-(2-(3-(1-(1-acetylazetidin-3-yl)piperidin-4-yl)-1-methyl-1H-pyrazolo[4,3-b]pyridin-5-yl)-7-(4-chlorophenyl)-5-methylbenzo [d]thiazol-6-yl)-2-(tert-butoxy) acetic acid] | – | 35 | 66 | – | 1 | 0.6 |
| Cc1cc2nc(-c3ccc4c(n3)c(C3CCN([C@H]5C[C@@H](O)C5)CC3)nn4C)sc2c(-c2ccc(Cl)cc2)c1[C@H](OC(C)(C)C)C(=O)O [Compound 188, (S)-2-(tert-butoxy)-2-(7-(4-chloro-phenyl)-2-(3-(1-((1s,3s)-3-hydroxy-cyclobutyl)piperidin-4-yl)-1-methyl-1H-pyrazolo[4,3-b]pyridin-5-yl)-5-methylbenzo[d]thiazol-6-yl) acetic acid] | – | 196 | 391 | – | 11 | 2.53 |
| Cc1cc2nc(-c3ccc4c(n3)c(N3CCN([C@H]5C[C@@H](O)C5)CC3)nn4C)sc2c(-c2ccc(Cl)cc2)c1[C@H](OC(C)(C)C)C(=O)O [Compound 197, (S)-2-(tert-butoxy)-2-(7-(4-chloro-phenyl)-2-(3-(4-((1s,3s)-3-hydroxy-cyclobutyl)piperazin-1-yl)-1-methyl-1H-pyrazolo[4,3-b]pyridin-5-yl)-5-methylbenzo[d]thiazol-6-yl) acetic acid] | – | 936 | 2680 | – | 18 | 2.8 |
